Calls of active or inactive are those of the source. No cut-off for these calls is given here.
Columns and labels:
SK-BR-3 [1] = assay: Cytotoxicity in human SK-BR-3 cells assessed as reduction in cell viability at 50 to 500 nM incubated for 72 hrs in absence of 15 mins photoirradiation at 365 nm by WST assay; assay type: toxicity, cell-based; settings: sk-br-3, 72 h, 0.5 µM, dose 50-500 nM
SK-BR-3 [2] = assay: Cytotoxicity in human SK-BR-3 cells assessed as reduction in cell viability at 50 to 500 nM incubated for 72 hrs in presence of 15 mins photoirradiation at 365 nm by WST assay; assay type: functional, cell-based; settings: dose 50-500 nM

For `CC[C@@]1(OC(=O)CCCCNC(=O)OC(C)c2cc(OC)c(OCCCC(=O)NCCN3C(=O)CC(NCCNC(=O)CCCC[C@@H]4SC[C@H]5NC(=O)N[C@@H]45)C3=O)cc2[N+](=O)[O-])C(=O)OCc2c1cc1n(c2=O)Cc2cc3ccccc3nc2-1` (some centres not stated), the Activity (SK-BR-3 [1]) was “Non-Toxic” and the Activity (SK-BR-3 [2]) was “Active”.

Reference: ChEMBL document CHEMBL5113425, “Preparation of a multifunctional photoactivated prodrug on a streptavidin scaffold bearing a DNA aptamer” (Bioorg Med Chem Lett, 2022)
